Laboratory results as given in ChEMBL document CHEMBL1158247, “Isolation of Isodrimenediol, a Possible Intermediate of Drimane Biosynthesis from Polyporus arcularius” (1996).
In brackets after ≈: the same amount, converted by molar mass.

Tests used:
Staphylococcus aureus = experiment: Antimicrobial activity against Staphylococcus aureus SG511 by agar diffusion method; assay type: functional
[1] = tested on: Sporobolomyces salmonicolor; experiment: Antimicrobial activity against Sporobolomyces salmonicolor 549 by agar diffusion method; assay type: functional

- MIC (Staphylococcus aureus): 10 mg/L (≈ 42 µM)
- MIC [1]: 5 mg/L (≈ 21 µM)
SMILES: C=C1CC[C@H]2C(C)(C)[C@@H](O)CC[C@]2(C)[C@H]1CO [ISODRIMENEDIOL]
